# Target: T1, Recombinant human renin (Homo sapiens, UniProt P00797)
# T1 construct: isolate the active form (residues 67-406); made in house; host or cells: FreeStyle 293-F cells (transient expression of pcDNA3.1(+)/hREN)
# T1 sequence (P00797 67-406): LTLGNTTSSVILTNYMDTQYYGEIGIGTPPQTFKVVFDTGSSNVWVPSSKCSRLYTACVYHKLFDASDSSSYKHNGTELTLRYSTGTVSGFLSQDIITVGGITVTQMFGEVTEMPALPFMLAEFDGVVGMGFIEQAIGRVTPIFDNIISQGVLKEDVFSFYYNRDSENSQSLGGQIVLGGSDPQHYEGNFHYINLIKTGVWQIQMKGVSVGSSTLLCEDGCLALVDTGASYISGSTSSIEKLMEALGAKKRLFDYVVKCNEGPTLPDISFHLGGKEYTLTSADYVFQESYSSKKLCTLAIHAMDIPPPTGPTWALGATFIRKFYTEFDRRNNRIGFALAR
# Experiment: In vitro enzymatic activity assay of renin inhibitors (fluorogenic peptide substrate)
# Assay type: biochemical
# Conditions: read-out: IC50 of Exemplified Compounds Against Renin
# Outline: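 Enzyme: recombinant human renin, 3 nM final, 10 min compound pre-incubation at 37 °C; buffer 50 mM Hepes pH 7.4 with 0.1 mg/mL BSA or extra 2% BSA; 5% DMSO.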
row,IC50,Compound
1,100 to 1000 nM,"COCCCn1c([C@@H]2CCCN(C(=O)[C@@H]3CN(S(=O)(=O)c4cccc(-c5ccnc(C)n5)c4)C[C@H]3N)C2)nc2ccccc21 [Compound 430, ((3R,4S)-4-amino-1-(3-(2-methylpyrimidin-4-yl)phenylsulfonyl)pyrrolidin-3-yl)((R)-3-(1-(3-methoxypropyl)-1H-benzo[d]imidazol-2-yl)piperidin-1-yl)methanone]"
2,100 to 1000 nM,"COCCCn1c([C@@H]2CCCN(C(=O)C[C@H](N)CNC(=O)c3c(Cl)cccc3Cl)C2)nc2ccccc21 [Compound 289, N-((S)-2-amino-4-((R)-3-(1-(3-methoxypropyl)-1H-benzo[d]imidazol-2-yl)piperidin-1-yl)-4-oxobutyl)-2,6-dichlorobenzamide]"
3,100 to 1000 nM,"COCCCn1c([C@@H]2CCCN(C(=O)C[C@H](N)CNC(=O)Nc3ccccc3-c3ccccc3)C2)nc2ccccc21 [Compound 291, 1-((S)-2-amino-4-((R)-3-(1-(3-methoxypropyl)-1H-benzo[d]imidazol-2-yl)piperidin-1-yl)-4-oxobutyl)-3-(biphenyl-2-yl)urea]"
4,< 100 nM,"COCCCn1c([C@@H]2CCCN(C(=O)C[C@H](N)Cc3ccc(-c4ccc5[nH]nc(N)c5c4)cc3)C2)nc2c(C)cccc21 [Compound 500, (R)-3-amino-4-(4-(3-amino-1H-indazol-5-yl)phenyl)-1-((R)-3-(1-(3-methoxypropyl)-4-methyl-1H-benzo[d]imidazol-2-yl)piperidin-1-yl)butan-1-one]"
5,100 to 1000 nM,"COCCCn1c([C@@H]2CCCN(C(=O)[C@@H]3CN(S(=O)(=O)c4ccc5c(ccn5C)c4)C[C@H]3N)C2)nc2ccccc21 [Compound 360, ((3R,4S)-4-amino-1-(1-methyl-1H-indol-5-ylsulfonyl)pyrrolidin-3-yl)((R)-3-(1-(3-methoxypropyl)-1H-benzo[d]imidazol-2-yl)piperidin-1-yl)methanone]"
6,< 100 nM,"COCCCn1c([C@@H]2CCCN(C(=O)C[C@H](N)Cc3ccc(C(C)(C)C)cc3)C2)nc2ccccc21 [Compound 90, (R)-3-amino-4-(4-tert-butylphenyl)-1((R)-3-(1-(3-methoxypropyl)-1H-benzo[d]imidazol-2-yl)piperidin-1-yl)butan-1-one]"
7,100 to 1000 nM,"COCCCn1c([C@@H]2CCCN(C(=O)C[C@H](N)CNC(=O)c3cccc(Cl)c3)C2)nc2ccccc21 [Compound 298, N-((S)-2-amino-4-((R)-3-(1-(3-methoxypropyl)-1H-benzo[d]imidazol-2-yl)piperidin-1-yl)-4-oxobutyl)-3-chlorobenzamide]"
8,100 to 1000 nM,"COCCCn1c([C@@H]2CCCN(C(=O)C[C@H](N)Cc3ccc4ccccc4c3)C2)nc2cc(Cl)c(Cl)cc21 [Compound 81, (R)-3-amino-1((R)-3-(5,6-dichloro-1-(3-methoxypropyl)-1H-benzo[d]imidazol-2-yl)piperidin-1-yl)-4-(naphthalen-2-yl)butan-1-one]"
9,< 100 nM,COCCCn1c([C@@H]2CCCN(C(=O)C[C@H](N)Cc3ccc(-c4ccccc4OC)cc3)C2)nc2ccccc21 [Compound 159]
10,100 to 1000 nM,"CC(=O)Nc1ccc(-c2ccc(C[C@@H](N)CC(=O)N3CCC[C@@H](c4nc5ccccc5n4CCC(N)=O)C3)cc2)cc1 [Compound 486, 3-(2-((R)-1-((R)-4-(4′-acetamidobiphenyl-4-yl)-3-aminobutanoyl)piperidin-3-yl)-1H-benzo[d]imidazol-1-yl)propanamide]"
11,> 1000 nM,"O=C(NC(=O)N1CCCC(c2nc3ccccc3[nH]2)C1)c1ccccc1 (stereo not shown) [Compound 5, 3-(1H-benzo[d]imidazol-2-yl)-N-benzoylpiperidine-1-carboxamide]"
12,> 1000 nM,"COCCCn1c([C@@H]2CCCN(C(=O)CC(N)C3CCNCC3)C2)nc2ccccc21 (stereo partly drawn) [Compound 94, 3-amino-1-((R)-3-(1-(3-methoxypropyl)-1H-benzo[d]imidazol-2-yl)piperidin-1-yl)-3-(piperidin-4-yl)propan-1-one]"
13,> 1000 nM,"COC(=O)[C@H](CC(C)C)NC(=O)N1CCCC(c2nc3ccccc3[nH]2)C1 (stereo partly drawn) [Compound 19, (2S)-methyl 2-(3-(1H-benzo[d]imidazol-2-yl)piperidine-1-carboxamido)-4-methylpentanoate]"
14,> 1000 nM,"COCCCn1c([C@@H]2CCCN(C(=O)[C@@H]3CN(C(=O)c4cc5ccccc5o4)C[C@H]3N)C2)nc2ccccc21 [Compound 406, ((3R,4S)-4-amino-1-(benzofuran-2-carbonyl)pyrrolidin-3-yl)((R)-3-(1-(3-methoxypropyl)-1H-benzo[d]imidazol-2-yl)piperidin-1-yl)methanone]"
15,< 100 nM,"COCCCn1c([C@@H]2CCCN(C(=O)C[C@H](N)Cc3ccc(-c4ccc5c(c4)CCO5)cc3)C2)nc2c(C)cccc21 [Compound 493, (R)-3-amino-4-(4-(2,3-dihydrobenzofuran-5-yl)phenyl)-l-((R)-3-(1-(3-methoxypropyl)-4-methyl-1H-benzo[d]imidazol-2-yl)piperidin-1-yl)butan-1-one]"
16,> 1000 nM,"NC1(C(=O)N2CCCC(c3nc4ccccc4[nH]3)C2)CCC1 (stereo not shown) [Compound 59, (3-(1H-benzo[d]imidazol-2-yl)piperidin-1-yl)(1-aminocyclobutyl)methanone]"
17,100 to 1000 nM,"COCCCn1c([C@@H]2CCCN(C(=O)C[C@H](N)Cc3ccc(N4CCC(C(=O)OC)CC4)cc3)C2)nc2ccccc21 [Compound 237, methyl 1-(4-((R)-2-amino-4-((R)-3-(1-(3-methoxypropyl)-1H-benzo[d]imidazol-2-yl)ppiperidin-1-yl)-4-oxobutyl)phenyl)piperidine-4-carboxylate]"
18,100 to 1000 nM,"COCCCn1c([C@@H]2CCCN(C(=O)C[C@H](N)CNC(=O)Nc3cc(C)ccc3OC)C2)nc2ccccc21 [Compound 287, 1-((S)-2-amino-4-((R)-3-(1-(3-methoxypropyl)-1H-benzo[d]imidazol-2-yl)piperidin-1-yl)-4-oxobutyl)-3-(2-methoxy-5-methylphenyl)urea]"
19,100 to 1000 nM,"COCCCn1c([C@@H]2CCCN(C(=O)C[C@H](N)CNS(=O)(=O)c3cccc(Cl)c3)C2)nc2ccccc21 [Compound 300, N-((S)-2-amino-4-((R)-3-(1-(3-methoxypropyl)-1H-benzo[d]imidazol-2-yl)piperidin-1-yl)-4-oxobutyl)-3-chlorobenzenesulfonamide]"
20,> 1000 nM,"COCCCn1c([C@@H]2CCCN(C(=O)[C@@H]3CN(C(=O)c4ccc(OC)cc4)C[C@H]3N)C2)nc2ccccc21 [Compound 394, ((3R,4S)-4-amino-1-(4-methoxybenzoyl)pyrrolidin-3-yl)((R)-3-(1-(3-methoxypropyl)-1H-benzo[d]imidazol-2-yl)piperidin-1-yl)methanone]"
21,> 1000 nM,"CCOC(=O)c1ccccc1NC(=O)NC[C@@H](N)CC(=O)N1CCC[C@@H](c2nc3ccccc3n2CCCOC)C1 [Compound 330, ethyl 2-(3-((S)-2-amino-4-((R)-3-(1-(3-methoxypropyl)-1H-benzo[d]imidazol-2-yl)piperidin-1-yl)-4-oxobutyl)ureido)benzoate]"
22,> 1000 nM,"COCCCn1c([C@@H]2CCCN(C(=O)C[C@@H](N)Cc3ccc(Cl)cc3)C2)nc2ccccc21 [Compound 69, (S)-3-amino-4-(4-chlorophenyl)-1-((R)-3-(1-(3-methoxypropyl)-1H-benzo[d]imidazol-2-yl)piperidin-1-yl)butan-1-one]"
23,> 1000 nM,"COCCCn1c([C@@H]2CCCN(C(=O)C[C@H](N)Cc3ccc(N4CCC(O)CC4)cc3)C2)nc2ccccc21 [Compound 234, (R)-3-amino-4-(4-(4-hydroxypiperidin-1-yl)phenyl)-1-((R)-3-(1-(3-methoxypropyl)-1H-benzo[d]imidazol-2-yl)piperidin-1-yl)butan-1-one]"
24,> 1000 nM,"N[C@H](CCc1ccccc1)CC(=O)N1CCCC(c2nc3ccccc3[nH]2)C1 (stereo partly drawn) [Compound 32, (3R)-1-(3-(1H-benzo[d]imidazol-2-yl)piperidin-1-yl)-3-amino-5-phenylpentan-1-one]"
25,> 1000 nM,"NC1(C(=O)N2CCCC(c3nc4ccccc4[nH]3)C2)CC1 (stereo not shown) [Compound 63, (3-(1H-benzo[d]imidazol-2-yl)piperidin-1-yl)(1-aminocyclopropyl)methanone]"
26,100 to 1000 nM,"CC(=O)NCCn1c([C@@H]2CCCN(C(=O)C[C@H](N)Cc3ccc(-c4ccc5c(c4)OC(F)(F)O5)cc3)C2)nc2c(C)cccc21 [Compound 474, N-(2-(2-((R)-1-((R)-3-amino-4-(4-(2,2-difluorobenzo[d][1,3]dioxol-5-yl)phenyl)butanoyl)piperidin-3-yl)-4-methyl-1H-benzo[d]imidazol-1-yl)ethyl)acetamide]"
27,> 1000 nM,"COCCCn1c([C@@H]2CCCN(C(=O)[C@@H]3CN(C(=O)c4ccccc4Cl)C[C@H]3N)C2)nc2ccccc21 [Compound 398, ((3R,4S)-4-amino-1-(2-chlorobenzoyl)pyrrolidin-3-yl)((R)-3-(1-(3-methoxypropyl)-1H-benzo[d]imidazol-2-yl)piperidin-1-yl)methanone]"
28,100 to 1000 nM,"COCCCn1c([C@@H]2CCCN(C(=O)C[C@H](N)CNC(=O)c3ccc(-c4ccccc4[N+](=O)[O-])o3)C2)nc2ccccc21 [Compound 275, N-((S)-2-amino-4-((R)-3-(1-(3-methoxypropyl)-1H-benzo[d]imidazol-2-yl)piperidin-1-yl)-4-oxobutyl)-5-(2-nitrophenyl)furan-2-carboxamide]"

# Source: US8138168B1 (Takeda Pharmaceutical Company Limited, priority 2007, dated 2012)
